Measured values reported in US20240391931A1 (Bristol-Myers Squibb Company, priority 2021, published 2024).
Where a name gives a salt, the structure may show the parent alone. Read-outs that look alike come from different tables or passages of the source.

Legend:
HER2YVMA = HER2YVMA (Homo sapiens, UniProt P04626, INS775YVMA); assay: Enzymatic assay HER2YVMA (method b); format: biochemical; design: purchased Viva biotech, Shanghai, China custom purification; settings: [HER2YVMA]=5 nM, [ATP]=25 μM, [Peptide 22]=1 μM
Chain of HER2YVMA (P04626 with tags, fused parts or gaps INS775YVMA): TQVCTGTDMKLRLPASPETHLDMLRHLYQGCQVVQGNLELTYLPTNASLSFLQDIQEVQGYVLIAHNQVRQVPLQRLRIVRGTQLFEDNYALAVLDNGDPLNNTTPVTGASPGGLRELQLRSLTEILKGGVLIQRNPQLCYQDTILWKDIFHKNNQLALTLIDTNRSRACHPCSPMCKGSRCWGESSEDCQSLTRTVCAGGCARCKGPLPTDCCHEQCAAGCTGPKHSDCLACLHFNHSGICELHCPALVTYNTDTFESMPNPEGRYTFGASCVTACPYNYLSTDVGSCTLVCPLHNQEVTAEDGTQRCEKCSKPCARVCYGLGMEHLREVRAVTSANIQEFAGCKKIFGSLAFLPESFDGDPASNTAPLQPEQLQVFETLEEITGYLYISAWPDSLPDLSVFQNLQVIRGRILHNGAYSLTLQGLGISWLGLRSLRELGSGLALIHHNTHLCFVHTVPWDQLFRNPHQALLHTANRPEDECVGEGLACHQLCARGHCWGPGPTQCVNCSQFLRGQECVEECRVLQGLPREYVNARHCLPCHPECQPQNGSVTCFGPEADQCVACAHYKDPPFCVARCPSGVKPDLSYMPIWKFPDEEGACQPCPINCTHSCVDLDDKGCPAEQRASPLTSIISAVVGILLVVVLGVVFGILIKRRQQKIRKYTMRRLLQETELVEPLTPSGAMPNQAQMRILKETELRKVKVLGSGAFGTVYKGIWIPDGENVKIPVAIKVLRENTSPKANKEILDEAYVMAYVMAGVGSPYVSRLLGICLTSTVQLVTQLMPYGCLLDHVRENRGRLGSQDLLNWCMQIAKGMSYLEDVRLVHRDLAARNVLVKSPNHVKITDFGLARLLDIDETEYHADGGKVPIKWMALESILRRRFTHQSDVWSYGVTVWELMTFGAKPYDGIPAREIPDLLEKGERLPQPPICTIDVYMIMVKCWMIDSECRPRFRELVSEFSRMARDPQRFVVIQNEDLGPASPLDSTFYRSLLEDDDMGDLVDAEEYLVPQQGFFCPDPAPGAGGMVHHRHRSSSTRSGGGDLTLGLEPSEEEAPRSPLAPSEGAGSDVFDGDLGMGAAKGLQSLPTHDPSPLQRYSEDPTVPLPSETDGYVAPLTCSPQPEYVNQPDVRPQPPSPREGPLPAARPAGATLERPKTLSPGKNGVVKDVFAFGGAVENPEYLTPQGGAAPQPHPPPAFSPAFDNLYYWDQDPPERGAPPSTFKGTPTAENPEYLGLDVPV
Description: (§1) A 2× stock solution of HER2 WT (ERBB2 0108-0000-1; ProQinase, Freiburg, Germany) corresponding to method a, was prepared as described below. Alternatively, a 2× stock solution of HER2YVMA (custom purification; Viva biotech, Shanghai, China) corresponding to method b, was prepared as described below. For method c, a 2× stock of EGFR (ERBB1 PR7295B, Thermo Fisher, Carlsbad, CA) was prepared as described below. All 2× solutions were prepared in buffer containing 50 mM HEPES, pH 7.5, 10 mM MnCl2, MgCl2, 0.005% Tween 20, 1 mM TCEP. 25 ul of 2× enzyme solution was added to a Seahorse low volume 384-well polypropylene assay plate (201288-100, Seahorse Bioscience, Chicopee, MA) containing 1 μl of compound serially diluted in 50% DMSO. To initiate the reaction, 25 μl of solution containing 2× final concentration of ATP and ProfilerPro Peptide 22 (760366, Perkin Elmer Hopkinton, MA) was added to each well. The reactions were separated on an LC3000 (Caliper Life Sciences) or a LabChip EZReader (Perkin Elmer) in kinetic mode.
(§2) At the conclusion of each assay, the data were exported from the instrument as a .rda file (LC3000) and processed in proprietary software, EZReviewer, which determines the percent of substrate converted to product within a given cycle as (P/P+S)*100 by measuring the amplitude of substrate and product peaks. Cycle time varied with amount of compounds tested between 8 and 12 cycles. Initial velocity (0-3600 s) from each reaction was determined from the slope of a plot of percent conversion at each cycle versus time (seconds). Percent inhibition was determined by dividing the slope of each reaction by the uninhibited control using 100*(1-(x/uninhibited control)). IC50 estimates were obtained by plotting the concentration of inhibitor versus percent inhibition in GraphPad Prism (GraphPad Software, San Diego, CA) using log[inhibitor] versus Response (Variable Slope Model); Y=Min+((Max-Min)/(1+((IC50/x)^Hillslope)))
(§3) • a) [HER2 WT]=12.5 nM, [ATP]=25 μM, [Peptide 22]=1 μM (ATP KMapp˜25 μM) • b) [HER2YVMA]=5 nM, [ATP]=25 μM, [Peptide 22]=1 μM (ATP KMapp˜15 μM) • c) [EGFR WT]=2 nM, [ATP]=1 mM, [Peptide 22]=1 μM (ATP KMapp˜25 μM)

EGFR = EGFR (Homo sapiens, UniProt P00533); assay: EGFR signaling (pEGFR Tyr1068/total EGFR MSD) in A431 cells; format: cell-based; design: endogenous in cells; host or cells: A431, N87; settings: for Selectivity A431 EC50/BT474 EC50: ratio A431 pEGFR EC50 to BT474 pHER2 EC50; for Selectivity A431 EC50/HEKYVMA EC50: ratio A431 pEGFR EC50 to HEK YVMA pHER2 EC50
Chain of EGFR (P00533 25-1210): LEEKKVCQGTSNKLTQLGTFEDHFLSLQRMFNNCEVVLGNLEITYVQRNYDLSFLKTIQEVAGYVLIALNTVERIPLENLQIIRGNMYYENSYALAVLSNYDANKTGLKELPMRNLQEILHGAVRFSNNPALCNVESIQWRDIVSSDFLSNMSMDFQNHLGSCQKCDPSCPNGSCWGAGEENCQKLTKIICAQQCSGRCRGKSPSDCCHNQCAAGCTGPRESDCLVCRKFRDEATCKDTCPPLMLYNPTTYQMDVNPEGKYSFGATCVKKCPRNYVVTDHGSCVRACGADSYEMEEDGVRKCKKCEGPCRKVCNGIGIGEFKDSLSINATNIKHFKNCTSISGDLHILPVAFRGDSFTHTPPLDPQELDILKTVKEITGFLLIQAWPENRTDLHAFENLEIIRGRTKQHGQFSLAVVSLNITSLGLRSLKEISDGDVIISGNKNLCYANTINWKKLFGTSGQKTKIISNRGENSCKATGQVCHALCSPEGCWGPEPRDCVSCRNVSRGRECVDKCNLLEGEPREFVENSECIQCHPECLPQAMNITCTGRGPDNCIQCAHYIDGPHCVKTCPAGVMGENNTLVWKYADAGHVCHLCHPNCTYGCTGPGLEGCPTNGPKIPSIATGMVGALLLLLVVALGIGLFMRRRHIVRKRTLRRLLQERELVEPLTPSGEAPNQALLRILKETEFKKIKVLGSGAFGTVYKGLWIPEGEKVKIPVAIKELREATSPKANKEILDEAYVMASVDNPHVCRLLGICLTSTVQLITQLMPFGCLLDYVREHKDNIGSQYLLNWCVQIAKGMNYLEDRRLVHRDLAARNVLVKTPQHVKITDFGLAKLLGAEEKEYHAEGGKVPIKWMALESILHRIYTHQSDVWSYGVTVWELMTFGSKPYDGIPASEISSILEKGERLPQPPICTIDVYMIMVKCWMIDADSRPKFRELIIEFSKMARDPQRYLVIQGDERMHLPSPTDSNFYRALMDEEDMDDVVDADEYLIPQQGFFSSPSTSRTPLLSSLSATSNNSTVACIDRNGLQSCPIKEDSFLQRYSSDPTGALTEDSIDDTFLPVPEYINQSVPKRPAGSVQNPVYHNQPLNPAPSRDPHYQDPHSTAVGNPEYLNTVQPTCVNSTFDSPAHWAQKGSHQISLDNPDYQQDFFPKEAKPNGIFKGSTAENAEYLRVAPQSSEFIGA
Description: In addition to the engineered cell lines, the following cell lines were used: BT474 (human breast carcinoma), N87 (human gastric carcinoma), NCI-H1781 (human lung adenocarcinoma), and A431 (human epidermoid carcinoma); all cell lines were obtained from the American Type Culture Collection (ATCC, Manassas, VA). NCI-H1781 were grown in complete RPMI 1640 (Life Technologies, Carlsbad, CA) supplemented with 15% fetal bovine serum (FBS, Life Technologies, Carlsbad, CA) and 1% Penicillin-Streptomycin (P/S, Life Technologies, Carlsbad, CA). N87 cells were grown in complete RPMI 1640 supplemented with 10% FBS and 1% P/S. BT474 and A431 cells were grown in DMEM (Life Technologies, Carlsbad, CA) supplemented with 10% FBS and 1% P/S. All cells were maintained and propagated in a humidified 5% CO2 incubator at 37° C.
A431 Cells were plated in 96-well tissue-culture treated plates in full media for 6 h, then starved with media containing 0.1% FBS for overnight. Media was replaced with low serum media (1% FBS) containing compound at 10, 3.3, 1.1, 0.37, 0.12, 0.041, 0.014, 0.005 μM or DMSO control (0.1%). Cells were incubated for 1.5 hr, then stimulated with 100 ng/mL human EGF (PeproTech, Rocky Hill, NJ) for 10 minutes. Cells were washed with cold PBS, and lysed for 30 min on ice in complete MSD lysis buffer (prepared as described in HER2 Signaling Method); lysates were stored at −70° C. until further analysis. EGFR signaling was evaluated using phospho (Tyr 1068)/total EGFR whole cell lysate kit (Meso-Scale Discovery, Gaithersburg, MD). The phospho EGFR signal was normalized to total EGFR for each sample; results are reported as % DMSO control. The normalized data was fitted using a sigmoidal curve analysis program (Graph Pad Prism version 6) with variable Hill slope to determine EC50 values. The results are provided in Table 4, under column titled “A431-pEGFR EC50”.

HER2 WT = target: T1, HER2 WT (Homo sapiens, UniProt P04626); assay: Enzymatic assay HER2 WT (method a); format: biochemical; settings: [HER2 WT]=12.5 nM, [ATP]=25 μM, [Peptide 22]=1 μM
T1 construct: purchased ProQinase, Freiburg, Germany ERBB2 0108-0000-1
T1 sequence (P04626 23-1255): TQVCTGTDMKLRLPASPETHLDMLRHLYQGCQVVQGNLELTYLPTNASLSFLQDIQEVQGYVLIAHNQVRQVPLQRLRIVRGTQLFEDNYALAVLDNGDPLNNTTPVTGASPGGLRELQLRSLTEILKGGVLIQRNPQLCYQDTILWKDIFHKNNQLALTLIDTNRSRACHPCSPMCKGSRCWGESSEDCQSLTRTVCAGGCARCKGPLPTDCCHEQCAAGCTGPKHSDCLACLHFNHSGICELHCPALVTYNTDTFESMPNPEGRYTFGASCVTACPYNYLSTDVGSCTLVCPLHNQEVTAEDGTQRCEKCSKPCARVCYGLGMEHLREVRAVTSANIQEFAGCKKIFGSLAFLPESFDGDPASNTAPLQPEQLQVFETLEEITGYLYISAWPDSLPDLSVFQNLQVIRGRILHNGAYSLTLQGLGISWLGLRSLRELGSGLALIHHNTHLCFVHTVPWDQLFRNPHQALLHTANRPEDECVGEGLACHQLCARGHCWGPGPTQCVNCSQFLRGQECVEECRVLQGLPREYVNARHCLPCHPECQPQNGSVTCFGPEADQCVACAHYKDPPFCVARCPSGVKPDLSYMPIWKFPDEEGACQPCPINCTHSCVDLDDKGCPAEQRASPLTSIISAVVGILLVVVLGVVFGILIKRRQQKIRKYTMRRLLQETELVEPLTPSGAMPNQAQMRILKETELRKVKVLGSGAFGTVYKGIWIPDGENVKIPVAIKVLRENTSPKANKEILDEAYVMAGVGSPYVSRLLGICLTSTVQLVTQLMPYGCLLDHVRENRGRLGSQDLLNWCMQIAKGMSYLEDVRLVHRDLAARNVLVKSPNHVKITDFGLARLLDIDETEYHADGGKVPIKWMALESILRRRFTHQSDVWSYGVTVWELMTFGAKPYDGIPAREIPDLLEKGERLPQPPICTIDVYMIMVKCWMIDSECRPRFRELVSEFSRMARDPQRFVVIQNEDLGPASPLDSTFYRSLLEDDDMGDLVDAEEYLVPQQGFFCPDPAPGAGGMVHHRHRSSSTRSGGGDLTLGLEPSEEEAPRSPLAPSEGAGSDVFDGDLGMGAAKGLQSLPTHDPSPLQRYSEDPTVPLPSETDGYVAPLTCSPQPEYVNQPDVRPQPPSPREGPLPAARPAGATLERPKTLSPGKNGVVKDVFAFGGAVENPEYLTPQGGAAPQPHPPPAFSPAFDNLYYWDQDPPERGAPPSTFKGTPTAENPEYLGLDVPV
Description: as §1, §2, §3

EGFR WT = target: T2, EGFR WT (Homo sapiens, UniProt P00533); assay: Enzymatic assay EGFR WT (method c); format: biochemical; settings: [EGFR WT]=2 nM, [ATP]=1 mM, [Peptide 22]=1 μM
T2 construct: purchased Thermo Fisher, Carlsbad, CA ERBB1 PR7295B
T2 sequence (P00533 25-1210): as the sequence (P00533 25-1210) above
Description: as §1, §2, §3

[1] = A431 cells, read-out: A431 pEGFR EC50

Row | Structure (SMILES) | IC50 (HER2YVMA) | EC50 (EGFR; [1]) | Selectivity A431 EC50/BT474 EC50 (EGFR) | Selectivity A431 EC50/HEKYVMA EC50 (EGFR) | IC50 (HER2 WT) | IC50 (EGFR WT) | EC50 (EGFR; A431 pEGFR EC50, A431 cells)
1 | Cc1ccc(Oc2ccc(Nc3ncnc4sc5c(c34)CCN(C(=O)/C=C/CN3CCO[C@@H](CO)C3)C5)cc2C)cn1 [Compound 144] | 100 to 1000 nM | 100 to 1000 nM | B (B: ≥ 20 and < 100) | D (D: ≥ 5 and < 10) | < 100 nM | > 10000 nM | 
2 | Cc1nc2cc(Oc3ccc(Nc4ncnc5sc6c(c45)CCN(C(=O)/C=C/CN(C)C)C6)cc3C)ccn2n1 [Compound 127, (E)-4-(dimethylamino)-1-(4-((3-methyl-4-((2-methyl-[1,2,4]triazolo[1,5-a]pyridin-7-yl)oxy)phenyl)amino)-5,6-dihydropyrido[4′,3′:4,5]thieno[2,3-d]pyrimidin-7(8H)-yl)but-2-en-1-one] | < 100 nM | 1000 to 10000 nM | A (A: ≥100) | B (B: ≥ 20 and < 100) | 100 to 1000 nM | > 10000 nM | 
3 | Cc1ccc(Oc2ccc(Nc3ncnc4sc5c(c34)CCN(C(=O)/C=C/CN3CC4CC(C3)O4)C5)cc2C)cn1 [Compound 15] | 100 to 1000 nM | 100 to 1000 nM | B (B: ≥ 20 and < 100) | B (B: ≥ 20 and < 100) | < 100 nM | > 10000 nM | 
4 | Cc1cc(Nc2ncnc3sc4c(c23)CCN(C(=O)/C=C/CN2CCOCC2)C4)ccc1Oc1ccc2ncnn2c1 [Compound 12] | 100 to 1000 nM | 1000 to 10000 nM | A (A: ≥100) | B (B: ≥ 20 and < 100) | < 100 nM | > 10000 nM | 
5 | Cc1cc(Nc2ncnc3sc4c(c23)CCN(C(=O)/C=C/CN(C)C)C4)ccc1Oc1ccc(N(C)C)nc1 [Compound 158, (E)-4-(dimethylamino)-1-(4-((4-((6-(dimethylamino)pyridin-3-yl)oxy)-3-methylphenyl)amino)-5,8-dihydropyrido[4′,3′:4,5]thieno[2,3-d]pyrimidin-7(6H)-yl)but-2-en-1-one] | < 100 nM | 100 to 1000 nM | B (B: ≥ 20 and < 100) | B (B: ≥ 20 and < 100) | < 100 nM | 1000 to 10000 nM | 
6 | Cc1ccc(Oc2ccc(Nc3ncnc4sc5c(c34)CCN(C(=O)/C=C/CN3CC(C)(C)OC(C)(C)C3)C5)cc2C)cn1 [Compound 121] | 100 to 1000 nM | 1000 to 10000 nM | B (B: ≥ 20 and < 100) | C (C: ≥ 10 and < 20) | 1000 to 10000 nM | > 10000 nM | 
7 | C=CC(=O)N1CCc2c(sc3ncnc(Nc4ccc(Oc5cccnc5)c(Cl)c4)c23)C1 [Compound 6, 1-(4-((3-chloro-4-(pyridin-3-yloxy)phenyl)amino)-5,8-dihydropyrido[4′,3′:4,5]thieno[2,3-d]pyrimidin-7(6H)-yl)prop-2-en-1-one] | < 100 nM | < 100 nM | E (E: >1 and < 5) | E (E: >1 and < 5) | < 100 nM | > 10000 nM | 
8 | COc1ccc(Oc2ccc(Nc3ncnc4sc5c(c34)CN(C(=O)/C=C/CN(C)C)C5)cc2C)cn1 [Compound 128, (E)-4-(dimethylamino)-1-(4-((4-((6-methoxypyridin-3-yl)oxy)-3-methylphenyl)amino)-5,7-dihydro-6H-pyrrolo[3′,4′:4,5]thieno[2,3-d]pyrimidin-6-yl)but-2-en-1-one] | < 100 nM | 1000 to 10000 nM | B (B: ≥ 20 and < 100) | B (B: ≥ 20 and < 100) | 100 to 1000 nM | > 10000 nM | 
9 | Cc1cc(Nc2ncnc3sc4c(c23)CCN(C(=O)/C=C/CN(C)C)C4)ccc1Oc1ccn2ccnc2c1 [Compound 126, (E)-4-(dimethylamino)-1-(4-((4-(imidazo[1,2-a]pyridin-7-yloxy)-3-methylphenyl)amino)-5,8-dihydropyrido[4′,3′:4,5]thieno[2,3-d]pyrimidin-7(6H)-yl)but-2-en-1-one] | < 100 nM | 100 to 1000 nM | B (B: ≥ 20 and < 100) | B (B: ≥ 20 and < 100) | < 100 nM | > 10000 nM | 
10 | Cc1ccc(Oc2ccc(Nc3ncnc4sc5c(c34)C(C)CN(C(=O)C=CCN(C)C(C)(C)C)C5)cc2C)cn1 (single isomer, unassigned) [Compound 179] | < 100 nM | < 100 nM | B (B: ≥ 20 and < 100) | E (E: >1 and < 5) | < 100 nM | > 10000 nM | 
11 | Cc1ccc(Oc2ccc(Nc3ncnc4sc5c(c34)CCN(C(=O)/C=C/CN3CC4CCC(C4)C3)C5)cc2C)cn1 [Compound 16, (E)-4-(3-azabicyclo[3.2.1]octan-3-yl)-1-(4-((3-methyl-4-((6-methylpyridin-3-yl)oxy)phenyl)amino)-5,8-dihydropyrido[4′,3′:4,5]thieno[2,3-d]pyrimidin-7(6H)-yl)but-2-en-1-one benzenesulfonate salt] | < 100 nM |  | D (D: ≥ 5 and < 10) | D (D: ≥ 5 and < 10) | < 100 nM |  | 100 to 1000 nM
